Consider five compounds from ChEMBL document CHEMBL5442175, “EUbOPEN Chemogenomics Library - PDSP Secondary Binding” (2024).

For experiment [1], the target named is Sigma intracellular receptor 2 (Homo sapiens, UniProt Q5BJF2). Kind of experiment: PDSP Secondary Binding target: TMEM97 - Compounds are tested at 10 uM concentration, plate are incubated at room temperature in the dark for 90 minutes. Reaction are stopped by vacuum filtration onto 0.3% polyethyleneimine soaked filter mats using Filtermate harvester. Scintillation cocktail is then melted onto microwave-dried filters on a hot plate and the radio activity is counted in Microbia counter.
Sequence of Sigma intracellular receptor 2 (Q5BJF2 whole entry): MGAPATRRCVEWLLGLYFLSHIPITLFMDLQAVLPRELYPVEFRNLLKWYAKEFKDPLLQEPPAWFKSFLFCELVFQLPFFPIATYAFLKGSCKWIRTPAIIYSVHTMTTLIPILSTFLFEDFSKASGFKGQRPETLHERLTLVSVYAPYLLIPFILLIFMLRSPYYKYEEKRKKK

The target of experiment [2] is Sigma non-opioid intracellular receptor 1 (Homo sapiens, UniProt Q99720). Kind of experiment: PDSP Secondary Binding target: SIGMAR1 - Compounds are tested at 10 uM concentration, plate are incubated at room temperature in the dark for 90 minutes. Reaction are stopped by vacuum filtration onto 0.3% polyethyleneimine soaked filter mats using Filtermate harvester. Scintillation cocktail is then melted onto microwave-dried filters on a hot plate and the radio activity is counted in Microbia counter.
Sequence of Sigma non-opioid intracellular receptor 1 (Q99720 whole entry): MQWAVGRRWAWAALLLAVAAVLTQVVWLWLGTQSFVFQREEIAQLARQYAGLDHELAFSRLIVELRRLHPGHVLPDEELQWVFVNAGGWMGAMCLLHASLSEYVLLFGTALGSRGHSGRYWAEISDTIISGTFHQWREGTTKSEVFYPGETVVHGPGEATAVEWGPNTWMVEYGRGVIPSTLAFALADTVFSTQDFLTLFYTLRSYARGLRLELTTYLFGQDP

Another experiment addresses Mu-type opioid receptor (Homo sapiens, UniProt P35372). Nature of the experiment: PDSP Secondary Binding target: OPRM1 - Compounds are tested at 10 uM concentration, plate are incubated at room temperature in the dark for 90 minutes. Reaction are stopped by vacuum filtration onto 0.3% polyethyleneimine soaked filter mats using Filtermate harvester. Scintillation cocktail is then melted onto microwave-dried filters on a hot plate and the radio activity is counted in Microbia counter.

Experiment [3] has as its target T1, 5-hydroxytryptamine receptor 3A (Homo sapiens, UniProt P46098).
T1 sequence (P46098 whole entry): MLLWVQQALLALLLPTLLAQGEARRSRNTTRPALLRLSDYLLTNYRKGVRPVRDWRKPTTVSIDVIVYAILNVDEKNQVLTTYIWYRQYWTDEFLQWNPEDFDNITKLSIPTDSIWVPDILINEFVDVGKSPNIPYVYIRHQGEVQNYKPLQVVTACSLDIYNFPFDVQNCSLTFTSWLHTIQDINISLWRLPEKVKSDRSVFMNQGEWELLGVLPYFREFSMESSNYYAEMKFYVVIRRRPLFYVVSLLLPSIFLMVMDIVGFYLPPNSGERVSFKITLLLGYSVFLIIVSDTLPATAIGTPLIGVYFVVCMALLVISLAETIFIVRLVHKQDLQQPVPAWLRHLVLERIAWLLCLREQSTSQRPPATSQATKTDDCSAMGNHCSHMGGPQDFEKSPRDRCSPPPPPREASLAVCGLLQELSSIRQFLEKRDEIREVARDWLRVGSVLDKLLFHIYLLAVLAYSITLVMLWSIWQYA
Kind of experiment: PDSP Secondary Binding target: HTR3A - Compounds are tested at 10 uM concentration, plate are incubated at room temperature in the dark for 90 minutes. Reaction are stopped by vacuum filtration onto 0.3% polyethyleneimine soaked filter mats using Filtermate harvester. Scintillation cocktail is then melted onto microwave-dried filters on a hot plate and the radio activity is counted in Microbia counter.

For experiment [4], the target named is T2, Muscarinic acetylcholine receptor M5 (Homo sapiens, UniProt P08912).
T2 sequence (P08912 whole entry): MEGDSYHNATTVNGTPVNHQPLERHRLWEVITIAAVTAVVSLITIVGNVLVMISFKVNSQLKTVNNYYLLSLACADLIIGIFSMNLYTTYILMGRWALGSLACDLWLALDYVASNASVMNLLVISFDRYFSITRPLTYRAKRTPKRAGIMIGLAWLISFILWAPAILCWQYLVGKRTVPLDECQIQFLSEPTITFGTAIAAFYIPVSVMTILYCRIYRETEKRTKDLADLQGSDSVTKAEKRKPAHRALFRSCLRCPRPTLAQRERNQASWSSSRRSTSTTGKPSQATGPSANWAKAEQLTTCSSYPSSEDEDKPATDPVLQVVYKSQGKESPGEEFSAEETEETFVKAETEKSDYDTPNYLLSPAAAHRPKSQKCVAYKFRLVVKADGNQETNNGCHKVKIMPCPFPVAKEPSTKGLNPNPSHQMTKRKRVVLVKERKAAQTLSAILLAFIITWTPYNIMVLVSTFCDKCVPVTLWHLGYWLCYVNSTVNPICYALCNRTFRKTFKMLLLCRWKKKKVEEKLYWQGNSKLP
Kind of experiment: PDSP Secondary Binding target: CHRM5 - Compounds are tested at 10 uM concentration, plate are incubated at room temperature in the dark for 90 minutes. Reaction are stopped by vacuum filtration onto 0.3% polyethyleneimine soaked filter mats using Filtermate harvester. Scintillation cocktail is then melted onto microwave-dried filters on a hot plate and the radio activity is counted in Microbia counter.

The next experiment has as its target Histamine H1 receptor (Homo sapiens, UniProt P35367). Kind of experiment: PDSP Secondary Binding target: HRH1 - Compounds are tested at 10 uM concentration, plate are incubated at room temperature in the dark for 90 minutes. Reaction are stopped by vacuum filtration onto 0.3% polyethyleneimine soaked filter mats using Filtermate harvester. Scintillation cocktail is then melted onto microwave-dried filters on a hot plate and the radio activity is counted in Microbia counter.

Experiment [5] concerns the target T3, Muscarinic acetylcholine receptor M1 (Homo sapiens, UniProt P11229).
T3 sequence (P11229 whole entry): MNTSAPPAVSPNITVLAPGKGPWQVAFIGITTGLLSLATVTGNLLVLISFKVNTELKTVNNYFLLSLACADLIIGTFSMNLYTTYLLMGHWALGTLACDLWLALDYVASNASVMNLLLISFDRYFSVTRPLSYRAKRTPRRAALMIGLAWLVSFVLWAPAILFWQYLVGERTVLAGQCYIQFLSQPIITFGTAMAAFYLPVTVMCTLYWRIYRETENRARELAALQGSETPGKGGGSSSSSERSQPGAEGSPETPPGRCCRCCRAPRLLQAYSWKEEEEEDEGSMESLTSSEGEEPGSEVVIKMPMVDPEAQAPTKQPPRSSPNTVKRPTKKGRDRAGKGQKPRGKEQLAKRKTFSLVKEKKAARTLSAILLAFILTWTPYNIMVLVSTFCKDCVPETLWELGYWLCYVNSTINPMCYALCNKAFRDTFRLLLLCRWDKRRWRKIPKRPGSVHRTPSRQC
Nature of the experiment: PDSP Secondary Binding target: CHRM1 - Compounds are tested at 10 uM concentration, plate are incubated at room temperature in the dark for 90 minutes. Reaction are stopped by vacuum filtration onto 0.3% polyethyleneimine soaked filter mats using Filtermate harvester. Scintillation cocktail is then melted onto microwave-dried filters on a hot plate and the radio activity is counted in Microbia counter.

For another experiment, the target named is Translocator protein (Homo sapiens, UniProt P30536). Nature of the experiment: PDSP Secondary Binding target: TSPO - Compounds are tested at 10 uM concentration, plate are incubated at room temperature in the dark for 90 minutes. Reaction are stopped by vacuum filtration onto 0.3% polyethyleneimine soaked filter mats using Filtermate harvester. Scintillation cocktail is then melted onto microwave-dried filters on a hot plate and the radio activity is counted in Microbia counter.
Sequence of Translocator protein (P30536 whole entry): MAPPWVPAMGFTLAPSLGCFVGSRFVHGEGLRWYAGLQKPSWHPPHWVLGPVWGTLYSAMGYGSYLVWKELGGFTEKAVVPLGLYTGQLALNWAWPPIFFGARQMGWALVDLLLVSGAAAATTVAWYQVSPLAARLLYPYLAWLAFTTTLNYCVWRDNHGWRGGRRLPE

In experiment [6] the target is T4, Muscarinic acetylcholine receptor M4 (Homo sapiens, UniProt P08173).
T4 sequence (P08173 whole entry): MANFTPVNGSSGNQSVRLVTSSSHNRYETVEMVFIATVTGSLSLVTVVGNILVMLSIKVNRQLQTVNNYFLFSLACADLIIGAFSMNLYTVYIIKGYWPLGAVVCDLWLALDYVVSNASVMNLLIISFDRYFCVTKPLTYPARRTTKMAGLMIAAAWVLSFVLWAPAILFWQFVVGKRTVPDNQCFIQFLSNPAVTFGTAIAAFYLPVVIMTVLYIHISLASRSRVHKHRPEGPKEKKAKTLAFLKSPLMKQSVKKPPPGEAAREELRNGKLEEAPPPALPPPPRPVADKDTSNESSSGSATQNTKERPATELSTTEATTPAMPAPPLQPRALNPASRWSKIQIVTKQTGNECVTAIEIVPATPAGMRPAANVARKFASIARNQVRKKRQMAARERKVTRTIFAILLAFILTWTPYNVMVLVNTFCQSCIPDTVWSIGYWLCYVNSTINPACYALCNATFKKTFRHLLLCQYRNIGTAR
Kind of experiment: PDSP Secondary Binding target: CHRM4 - Compounds are tested at 10 uM concentration, plate are incubated at room temperature in the dark for 90 minutes. Reaction are stopped by vacuum filtration onto 0.3% polyethyleneimine soaked filter mats using Filtermate harvester. Scintillation cocktail is then melted onto microwave-dried filters on a hot plate and the radio activity is counted in Microbia counter.

Experiment [7] concerns the target 5-hydroxytryptamine receptor 1D (Homo sapiens, UniProt P28221). Nature of the experiment: PDSP Secondary Binding target: HTR1D - Compounds are tested at 10 uM concentration, plate are incubated at room temperature in the dark for 90 minutes. Reaction are stopped by vacuum filtration onto 0.3% polyethyleneimine soaked filter mats using Filtermate harvester. Scintillation cocktail is then melted onto microwave-dried filters on a hot plate and the radio activity is counted in Microbia counter.

The target in experiment [8] is 5-hydroxytryptamine receptor 5A (Homo sapiens, UniProt P47898). Nature of the experiment: PDSP Secondary Binding target: HTR5A - Compounds are tested at 10 uM concentration, plate are incubated at room temperature in the dark for 90 minutes. Reaction are stopped by vacuum filtration onto 0.3% polyethyleneimine soaked filter mats using Filtermate harvester. Scintillation cocktail is then melted onto microwave-dried filters on a hot plate and the radio activity is counted in Microbia counter.
Sequence of 5-hydroxytryptamine receptor 5A (P47898 whole entry): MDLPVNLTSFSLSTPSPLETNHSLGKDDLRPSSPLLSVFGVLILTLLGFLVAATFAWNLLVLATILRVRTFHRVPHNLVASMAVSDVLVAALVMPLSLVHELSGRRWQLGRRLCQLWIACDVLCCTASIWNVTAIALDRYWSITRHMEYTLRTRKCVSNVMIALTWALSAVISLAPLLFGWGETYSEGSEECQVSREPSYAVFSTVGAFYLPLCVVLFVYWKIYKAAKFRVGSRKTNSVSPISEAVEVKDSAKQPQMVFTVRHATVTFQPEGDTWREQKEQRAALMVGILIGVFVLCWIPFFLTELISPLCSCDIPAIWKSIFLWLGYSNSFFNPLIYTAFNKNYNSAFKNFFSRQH

Experiment [9] deals with Sodium-dependent noradrenaline transporter (Homo sapiens, UniProt P23975). Kind of experiment: PDSP Secondary Binding target: SLC6A2 - Compounds are tested at 10 uM concentration, plate are incubated at room temperature in the dark for 90 minutes. Reaction are stopped by vacuum filtration onto 0.3% polyethyleneimine soaked filter mats using Filtermate harvester. Scintillation cocktail is then melted onto microwave-dried filters on a hot plate and the radio activity is counted in Microbia counter.
Sequence of Sodium-dependent noradrenaline transporter (P23975 whole entry): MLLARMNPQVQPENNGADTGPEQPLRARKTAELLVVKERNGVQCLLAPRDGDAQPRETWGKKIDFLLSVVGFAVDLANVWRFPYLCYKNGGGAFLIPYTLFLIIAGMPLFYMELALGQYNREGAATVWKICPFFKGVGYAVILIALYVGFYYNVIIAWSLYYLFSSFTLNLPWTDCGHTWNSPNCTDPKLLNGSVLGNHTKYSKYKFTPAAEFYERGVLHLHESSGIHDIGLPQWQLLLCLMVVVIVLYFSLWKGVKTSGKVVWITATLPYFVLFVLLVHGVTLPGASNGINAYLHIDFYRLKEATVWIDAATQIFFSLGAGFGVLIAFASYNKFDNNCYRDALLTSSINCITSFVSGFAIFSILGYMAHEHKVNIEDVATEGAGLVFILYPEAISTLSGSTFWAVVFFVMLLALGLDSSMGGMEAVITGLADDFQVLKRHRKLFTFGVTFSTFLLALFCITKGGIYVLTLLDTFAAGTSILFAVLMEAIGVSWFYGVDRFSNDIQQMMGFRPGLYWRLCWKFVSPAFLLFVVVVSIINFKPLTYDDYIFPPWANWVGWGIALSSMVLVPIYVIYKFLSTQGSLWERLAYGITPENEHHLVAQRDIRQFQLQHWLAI

The next experiment concerns the target T5, D(4) dopamine receptor (Homo sapiens, UniProt P21917).
T5 sequence (P21917 whole entry): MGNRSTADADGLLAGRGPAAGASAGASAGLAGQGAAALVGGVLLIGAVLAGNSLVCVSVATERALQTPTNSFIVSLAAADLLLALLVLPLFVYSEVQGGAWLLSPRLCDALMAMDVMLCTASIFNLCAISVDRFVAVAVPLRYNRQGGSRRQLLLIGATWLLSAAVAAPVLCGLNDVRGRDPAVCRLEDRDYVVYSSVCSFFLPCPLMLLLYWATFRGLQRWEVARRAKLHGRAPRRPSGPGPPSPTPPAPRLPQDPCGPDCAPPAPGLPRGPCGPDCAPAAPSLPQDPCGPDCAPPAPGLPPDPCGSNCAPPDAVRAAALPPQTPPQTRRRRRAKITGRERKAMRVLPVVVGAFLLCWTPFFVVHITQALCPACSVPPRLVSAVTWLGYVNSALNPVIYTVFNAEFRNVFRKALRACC
Nature of the experiment: PDSP Secondary Binding target: DRD4 - Compounds are tested at 10 uM concentration, plate are incubated at room temperature in the dark for 90 minutes. Reaction are stopped by vacuum filtration onto 0.3% polyethyleneimine soaked filter mats using Filtermate harvester. Scintillation cocktail is then melted onto microwave-dried filters on a hot plate and the radio activity is counted in Microbia counter.

Experiment [10] concerns the target T6, 5-hydroxytryptamine receptor 2C (Homo sapiens, UniProt P28335).
T6 sequence (P28335 whole entry): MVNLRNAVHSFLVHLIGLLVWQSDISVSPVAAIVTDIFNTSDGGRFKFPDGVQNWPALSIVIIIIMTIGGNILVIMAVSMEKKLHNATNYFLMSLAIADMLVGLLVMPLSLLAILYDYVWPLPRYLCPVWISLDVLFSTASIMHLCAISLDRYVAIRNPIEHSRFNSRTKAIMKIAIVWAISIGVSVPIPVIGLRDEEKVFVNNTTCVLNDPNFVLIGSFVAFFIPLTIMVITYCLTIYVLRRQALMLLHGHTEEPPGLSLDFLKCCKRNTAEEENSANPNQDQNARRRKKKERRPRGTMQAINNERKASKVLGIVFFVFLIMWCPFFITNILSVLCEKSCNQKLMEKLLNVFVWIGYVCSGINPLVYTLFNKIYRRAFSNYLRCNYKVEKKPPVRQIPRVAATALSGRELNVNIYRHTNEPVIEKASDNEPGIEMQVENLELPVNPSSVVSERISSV
Nature of the experiment: PDSP Secondary Binding target: HTR2C - Compounds are tested at 10 uM concentration, plate are incubated at room temperature in the dark for 90 minutes. Reaction are stopped by vacuum filtration onto 0.3% polyethyleneimine soaked filter mats using Filtermate harvester. Scintillation cocktail is then melted onto microwave-dried filters on a hot plate and the radio activity is counted in Microbia counter.

The target in experiment [11] is 5-hydroxytryptamine receptor 6 (Homo sapiens, UniProt P50406). Nature of the experiment: PDSP Secondary Binding target: HTR6 - Compounds are tested at 10 uM concentration, plate are incubated at room temperature in the dark for 90 minutes. Reaction are stopped by vacuum filtration onto 0.3% polyethyleneimine soaked filter mats using Filtermate harvester. Scintillation cocktail is then melted onto microwave-dried filters on a hot plate and the radio activity is counted in Microbia counter.
Sequence of 5-hydroxytryptamine receptor 6 (P50406 whole entry): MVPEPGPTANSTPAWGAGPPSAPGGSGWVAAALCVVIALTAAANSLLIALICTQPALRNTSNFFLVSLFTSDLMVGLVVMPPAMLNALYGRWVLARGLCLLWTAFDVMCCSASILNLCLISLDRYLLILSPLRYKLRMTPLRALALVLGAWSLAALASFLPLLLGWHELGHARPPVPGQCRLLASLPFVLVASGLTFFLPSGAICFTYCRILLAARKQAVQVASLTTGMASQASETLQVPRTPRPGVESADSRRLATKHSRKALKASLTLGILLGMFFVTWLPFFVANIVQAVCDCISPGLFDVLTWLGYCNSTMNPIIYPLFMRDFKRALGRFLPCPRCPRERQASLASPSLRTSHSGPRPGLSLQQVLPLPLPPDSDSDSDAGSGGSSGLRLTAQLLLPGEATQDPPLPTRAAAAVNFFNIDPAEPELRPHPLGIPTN

For experiment [12], the target named is 5-hydroxytryptamine receptor 7 (Homo sapiens, UniProt P34969). Nature of the experiment: PDSP Secondary Binding target: HTR7 - Compounds are tested at 10 uM concentration, plate are incubated at room temperature in the dark for 90 minutes. Reaction are stopped by vacuum filtration onto 0.3% polyethyleneimine soaked filter mats using Filtermate harvester. Scintillation cocktail is then melted onto microwave-dried filters on a hot plate and the radio activity is counted in Microbia counter.
Sequence of 5-hydroxytryptamine receptor 7 (P34969 whole entry): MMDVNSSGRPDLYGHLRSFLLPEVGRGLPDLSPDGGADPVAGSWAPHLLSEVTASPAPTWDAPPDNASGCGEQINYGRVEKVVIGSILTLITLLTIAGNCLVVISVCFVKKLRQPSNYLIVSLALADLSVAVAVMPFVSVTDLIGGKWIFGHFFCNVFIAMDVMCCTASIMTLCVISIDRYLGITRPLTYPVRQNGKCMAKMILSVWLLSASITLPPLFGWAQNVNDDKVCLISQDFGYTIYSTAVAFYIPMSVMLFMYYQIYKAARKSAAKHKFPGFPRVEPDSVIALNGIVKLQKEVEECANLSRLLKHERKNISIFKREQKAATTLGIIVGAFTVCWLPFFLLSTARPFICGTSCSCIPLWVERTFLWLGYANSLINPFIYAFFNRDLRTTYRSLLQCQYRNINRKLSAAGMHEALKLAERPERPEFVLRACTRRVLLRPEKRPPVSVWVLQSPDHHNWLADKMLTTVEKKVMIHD

Structures can show the parent of a compound that is named as a salt.

Sequence of Histamine H1 receptor (P35367 whole entry): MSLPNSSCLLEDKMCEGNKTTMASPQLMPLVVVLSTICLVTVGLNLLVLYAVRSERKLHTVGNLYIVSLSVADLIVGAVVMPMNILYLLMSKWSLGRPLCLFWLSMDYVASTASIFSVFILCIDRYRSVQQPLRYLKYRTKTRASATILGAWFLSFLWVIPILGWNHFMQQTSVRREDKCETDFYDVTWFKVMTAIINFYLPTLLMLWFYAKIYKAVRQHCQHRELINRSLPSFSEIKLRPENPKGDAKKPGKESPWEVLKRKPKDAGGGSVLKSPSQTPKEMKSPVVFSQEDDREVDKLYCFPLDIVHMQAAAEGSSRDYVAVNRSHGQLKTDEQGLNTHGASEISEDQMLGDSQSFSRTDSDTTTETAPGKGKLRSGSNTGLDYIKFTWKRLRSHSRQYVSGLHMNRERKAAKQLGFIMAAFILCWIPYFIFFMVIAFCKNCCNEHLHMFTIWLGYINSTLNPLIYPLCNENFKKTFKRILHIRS
Sequence of 5-hydroxytryptamine receptor 1D (P28221 whole entry): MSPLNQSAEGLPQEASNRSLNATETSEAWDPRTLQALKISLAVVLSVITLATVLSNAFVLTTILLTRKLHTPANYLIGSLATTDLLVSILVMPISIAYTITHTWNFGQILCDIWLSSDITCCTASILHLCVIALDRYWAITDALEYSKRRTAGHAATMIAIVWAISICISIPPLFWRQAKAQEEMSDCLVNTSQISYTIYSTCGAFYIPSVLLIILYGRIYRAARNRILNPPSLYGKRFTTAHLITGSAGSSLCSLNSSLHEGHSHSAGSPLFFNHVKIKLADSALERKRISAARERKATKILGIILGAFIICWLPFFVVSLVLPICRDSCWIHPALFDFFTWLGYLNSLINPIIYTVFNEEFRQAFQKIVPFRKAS
Sequence of Mu-type opioid receptor (P35372 whole entry): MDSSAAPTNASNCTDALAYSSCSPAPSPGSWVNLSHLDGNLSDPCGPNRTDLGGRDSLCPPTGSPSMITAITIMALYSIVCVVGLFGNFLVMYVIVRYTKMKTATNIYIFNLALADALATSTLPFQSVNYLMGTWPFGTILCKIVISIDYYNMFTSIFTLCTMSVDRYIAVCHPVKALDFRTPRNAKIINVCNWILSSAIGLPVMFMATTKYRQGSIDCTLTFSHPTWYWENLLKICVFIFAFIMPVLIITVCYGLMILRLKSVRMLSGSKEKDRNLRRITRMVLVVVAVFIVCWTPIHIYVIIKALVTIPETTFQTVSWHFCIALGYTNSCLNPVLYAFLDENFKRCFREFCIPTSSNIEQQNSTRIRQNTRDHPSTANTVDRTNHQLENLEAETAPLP

As to `CCc1nn2c(C)cc(C)nc2c1Cc1ccc(-c2nnc(C3CCNCC3)o2)cc1`, the Ki came to 0.489 µM in experiment [1], 2 µM in experiment [2], 7.72 µM at Mu-type opioid receptor and 0.36 µM in experiment [3].

Turning to `Cc1ccc(O)c([C@H](CCN(C(C)C)C(C)C)c2ccccc2)c1` [TOLTERODINE TARTRATE], the Ki stood at 0.00386 µM in experiment [4]; 0.167 µM in experiment [1]; 0.216 µM in [2]; 0.127 µM at Histamine H1 receptor; 0.00869 µM in [5].

With `C[N+]1(C)[C@@H]2C[C@@H](OC(=O)C(O)(c3cccs3)c3cccs3)C[C@H]1[C@@H]1O[C@@H]12` [TIOTROPIUM BROMIDE], the Ki in [4] was 0.00122 µM; in [1], 2.06 µM; at Translocator protein it was 4.29 µM; in [6], 0.0006 µM.

In the case of `CC(C)[C@H](CO)Nc1nc(Nc2cccc(Cl)c2)c2ncn(C(C)C)c2n1` [PURVALANOLA], the Ki in [7] is 3.8 µM; in experiment [8] it was 7.54 µM; in [9] it was 4.4 µM; in experiment [1] it was 1.13 µM; on D(4) dopamine receptor, 4.87 µM; in [10], 3.04 µM. Also, the results for the Ki (in [11]; at Translocator protein; in [6]) were 2.27 µM, 1.52 µM and > 10 µM, respectively.

`Clc1ccc(CCCOCCCN2CCCCC2)cc1` [PITOLISANT HYDROCHLORIDE]: the Ki in experiment [12] is 1.1 µM; in experiment [9], 1.92 µM; in experiment [1], 0.00701 µM; in experiment [2] it was 0.000904 µM; in [10], 1.99 µM; on Histamine H1 receptor, 1.2 µM. In addition, the Ki in [6] is 0.899 µM.

For orientation: Ki means a dissociation constant, usually derived from enzyme kinetics or from competition with a known ligand. The low end stands for a stronger hold on the target, the high end for a looser hold on the target.
